Source: patent publication US20050043180A1, “Optically active herbicidal (r)-phenoxypropionic acid-n-methyl-n-2-fluorophenyl amides” (priority 2001, published 2005)

Experiments:
[1] = system: Barnyard grass (ECHCG, Echinochloa crus-galli Beauv. var. caudata Kitagawa); test: Leaf treatment test, herbicidal activity on barnyard grass; type: in vivo
Description: (§1) Experimental Example 1: Leaf Treatment Test
Seeds of rice, wheat, barley, corn, cotton, barnyard grass, common sorgum, large crabgrass and fall panicum were seeded at a pot with a surface area of 600 cm^2. […], wettable powder prepared by mixing 1 part by weight of the active compound, 5 parts by weight of acetone and 1 part by weight of emulsifier and diluted with water was applied directly to the leaves in 2000 L per hectare. The concentration of the spray liquid was so chosen the particular amounts of the active compound desired. 14 days after the treatment, the degree of damage to the plants was rated in % damage in comparison to the development of untreated control.

[2] = system: Rice (ORYSA, Oryza sativa L. cv. Dongjin); test: Leaf treatment test, damage to rice; type: in vivo
Description: as §1
Seeds of rice, wheat, barley, corn, cotton, barnyard grass, common sorgum, large crabgrass and fall panicum were seeded at a pot with a surface area of 600 cm^2. When barnyard grass grown in a green house kept at 20-30° C. had three leaves, wettable powder prepared by mixing 1 part by weight of the active compound, 5 parts by weight of acetone and 1 part by weight of emulsifier and diluted with water was applied directly to the leaves in 2000 L per hectare. The concentration of the spray liquid was so chosen the particular amounts of the active compound desired. 14 days after the treatment, the degree of damage to the plants was rated in % damage in comparison to the development of untreated control.

[3] = leaf treatment 2 g/ha, 14 days after treatment
[4] = leaf treatment 4 g/ha, 14 days after treatment
[5] = leaf treatment 8 g/ha, 14 days after treatment
[6] = leaf treatment 16 g/ha, 14 days after treatment
[7] = leaf treatment 32 g/ha, 14 days after treatment
[8] = leaf treatment 63 g/ha, 14 days after treatment
[9] = leaf treatment 125 g/ha, 14 days after treatment
[10] = leaf treatment 250 g/ha, 14 days after treatment
[11] = leaf treatment 500 g/ha, 14 days after treatment
[12] = leaf treatment 1000 g/ha, 14 days after treatment
[13] = leaf treatment 2000 g/ha, 14 days after treatment
[14] = leaf treatment 4000 g/ha, rated 14 days after treatment vs untreated control, 0% no effect, 100% total destruction

SMILES | % damage, Barnyard grass (4 leaves) [1, 3] [%] | % damage, Barnyard grass (4 leaves) [1, 4] [%] | % damage, Barnyard grass (4 leaves) [1, 5] [%] | % damage, Barnyard grass (4 leaves) [1, 6] [%] | % damage, Barnyard grass (4 leaves) [1, 7] [%] | % damage, Barnyard grass (4 leaves) [1, 8] [%] | % damage, Barnyard grass (4 leaves) [1, 9] [%] | % damage, Barnyard grass (4 leaves) [1, 10] [%] | % damage, Barnyard grass (4 leaves) [1, 11] [%] | % damage, Barnyard grass (4 leaves) [1, 12] [%] | % damage, Barnyard grass (4 leaves) [1, 13] [%] | % damage, Barnyard grass (4 leaves) [1, 14] [%] | % damage, Rice (4 leaves) [2, 3] [%] | % damage, Rice (4 leaves) [2, 4] [%] | % damage, Rice (4 leaves) [2, 5] [%] | % damage, Rice (4 leaves) [2, 6] [%] | % damage, Rice (4 leaves) [2, 7] [%] | % damage, Rice (4 leaves) [2, 8] [%] | % damage, Rice (4 leaves) [2, 9] [%] | % damage, Rice (4 leaves) [2, 10] [%] | further results
CC(Oc1ccc(Oc2nc3ccc(Cl)cc3o2)cc1)C(=O)N(C)c1ccccc1F (racemic) [R,S-racemic compound] | 0.0 | 2.5 | 45.0 | 100 | 100 | 100 | 100 | 100 | 100 | 100 | 100 | 100 | 0.0 | 0.0 | 0.0 | 0.0 | 0.0 | 0.0 | 0.0 | 0.0 | % damage, Rice (4 leaves) [2, 11]: 0.0%; % damage, Rice (4 leaves) [2, 12]: 0.0%; % damage, Rice (4 leaves) [2, 13]: 0.0%; % damage, Rice (4 leaves) [2, 14]: 3.8%
C[C@@H](Oc1ccc(Oc2nc3ccc(Cl)cc3o2)cc1)C(=O)N(C)c1ccccc1F [(R)-compound, (R)-2-[4-(6-chloro-2-benzoxazolyloxy)-phenoxy]propionic acid-N-(2-fluorophenyl)-N-methyl amide] | 6.3 | 62.5 | 98.8 | 100 | 100 | 100 | 100 | 100 | 100 | 100 | 100 | 100 | 0.0 | 0.0 | 0.0 | 0.0 | 0.0 | 0.0 | 0.0 | 0.0 | % damage, Rice (4 leaves) [2, 11]: 0.0%; % damage, Rice (4 leaves) [2, 12]: 2.5%; % damage, Rice (4 leaves) [2, 13]: 11.3%; % damage, Rice (4 leaves) [2, 14]: 22.5%
C[C@H](Oc1ccc(Oc2nc3ccc(Cl)cc3o2)cc1)C(=O)N(C)c1ccccc1F [(S)-compound] | 0.0 | 0.0 | 7.5 | 65.0 | 92.5 | 100 | 100 | 100 | 100 | 100 | 100 | 100 | 0.0 | 0.0 | 0.0 | 0.0 | 0.0 | 0.0 | 0.0 | 0.0 | % damage, Rice (4 leaves) [2, 11]: 0.0%; % damage, Rice (4 leaves) [2, 12]: 0.0%; % damage, Rice (4 leaves) [2, 13]: 0.0%; % damage, Rice (4 leaves) [2, 14]: 0.0%
